Results reported in patent US9326515B2, “Fungicidal 3-[(1,3-thiazol-4-ylmethoxyimino)(phenyl)methyl]-2-substituted-1,2,4-oxadiazol-5(2H)-one derivatives” (BAYER INTELLECTUAL PROPERTY GMBH, priority 2011, dated 2016).
Like-named read-outs stand apart in the source and are kept apart here.

Columns and labels:
[1] = for chromatographic logP: pH 2.7; for LogP: table 1, compounds of formula (I), HPLC reversed phase, pH 2.7, 0.1% formic acid in water / acetonitrile gradient
Plasmopara viticola = experiment: Example I: in vivo preventive test on Plasmopara viticola (grapevines); details: 10 ppm of active ingredient, spray on young grapevine plants, inoculated after spray coating dried, evaluated 6 days after inoculation
Experimental: To produce a suitable preparation of active compound, 1 part by weight of active compound is mixed with the stated amounts of solvent and emulsifier, and the concentrate is diluted with water to the desired concentration.
To test for preventive activity, young plants are sprayed with the preparation of active compound at the stated rate of application. After the spray coating has dried on, the plants are inoculated with an aqueous spore suspension of Plasmopara viticola and then remain for 1 day in an incubation cabinet at approximately 20° C. and a relative atmospheric humidity of 100%. The plant is subsequently placed for 4 days in a greenhouse at approximately 21° C. and a relative atmospheric humidity of approximately 90%. The plants are then misted and placed for 1 day in an incubation cabinet.
The test is evaluated 6 days after the inoculation. 0% means an efficacy which corresponds to that of the untreated control, while an efficacy of 100% means that no disease is observed.

Phytophthora infestans [2] = type: in vivo; details: 100 ppm of active ingredient, spray on young tomato plants, inoculated one day after treatment, evaluated 7 days after inoculation
Phytophthora infestans [3] = type: in vivo; details: 500 ppm, spray on tomato plants, contaminated after 24 hours, grading 5 days after contamination vs control plants
[4] = pH 2.7
Sphaerotheca fuliginea = experiment: Example D: in vivo preventive test on Sphaerotheca fuliginea (powdery mildew on cucurbits); details: 500 ppm, spray on gherkin plants, contaminated after 24 hours, grading 12 days after contamination vs control plants
Experimental: (§1) The active ingredients tested are prepared by homogenization in a mixture of acetone/tween/DMSO and then diluted with water to obtain the desired active material concentration.
(§2) Gherkin plants (“Vert petit de Paris” variety), sown in starter cups on a 50/50 peat soil-pozzolana substrate and grown at 24° C., are treated at the Z11 cotyledon stage by spraying with the active ingredient prepared as described above. Plants, used as controls, are treated with the mixture of acetone/tween/DMSO/water not containing the active material.
After 24 hours, the plants are contaminated by spraying the cotyledons with an aqueous suspension of Sphaerotheca fuliginea spores (100 000 spores per ml). The spores are collected from infected plants. The contaminated gherkin plants are incubated at about 20° C. and at 70-80% relative humidity.
(§3) Grading (% of efficacy) is carried out 12 days after the contamination, in comparison with the control plants.
(§4) Under these conditions, good (at least 70%) or total protection is observed at a dose of 500 ppm with the following compounds: […]

Puccinia recondita = experiment: Example F: in vivo preventive test on Puccinia recondita (brown rust on wheat); details: 500 ppm, spray on wheat plants, contaminated after 24 hours, grading 12 days after contamination vs control plants
Experimental: The active ingredients tested are prepared by homogenization in a mixture of acetone/tween/DMSO, and then diluted with water to obtain the desired active material concentration.
Wheat plants (“Scipion” variety), sown in starter cups on a 50/50 peat soil-pozzolana substrate and grown at 22° C., are treated at the 1-leaf stage (10 cm height) by spraying with the active ingredient prepared as described above. Plants, used as controls, are treated with the mixture of acetone/tween/DMSO/water not containing the active material.
After 24 hours, the plants are contaminated by spraying the leaves with an aqueous suspension of Puccinia recondita spores (100 000 spores per ml). The spores are collected from an infected plant and are suspended in water containing 2.5 ml/l of Tween 80 at 10%. The contaminated wheat plants are incubated for 24 hours at 20° C. and at 100% relative humidity, and then for 10 days at 20° C. and at 70-80% relative humidity.
as §3, §4

Botrytis cinerea = experiment: Example C: in vivo preventive test on Botrytis cinerea (grey mould); details: 500 ppm, spray on gherkin plants, contaminated after 24 hours, grading 4 to 5 days after contamination vs control plants
Experimental: as §1, §2
After 24 hours, the plants are contaminated by spraying the cotyledons with an aqueous suspension of cryopreserved Botrytis cinerea spores (50 000 spores per ml). The spores are suspended in a nutrient solution composed of 10 g/L of PDB, 50 g/L of D-Fructose, 2 g/L of NH4NO3 and 1 g/L of KH2PO4. The contaminated gherkin plants are incubated at 17° C. and at 90% relative humidity.
Grading (% of efficacy) is carried out 4 to 5 days after the contamination, in comparison with the control plants.
as §4

CN(O)C(=N)/C(=N\OCc1csc(N)n1)c1ccccc1 [Example V-2, (2Z)-2-{[(2-amino-1,3-thiazol-4-yl)methoxy]imino}-N-hydroxy-N-methyl-2-phenylethanimidamide]
chromatographic logP [1]: 0.47

Cn1oc(=O)nc1/C(=N\OCc1csc(NC(=O)C2CCc3ccccc3O2)n1)c1ccccc1 (stereo not shown) [Example 22, N-{4-[({[(Z)-(2-methyl-5-oxo-2,5-dihydro-1,2,4-oxadiazol-3-yl)(phenyl)methylene]amino}oxy)methyl]-1,3-thiazol-2-yl}chromane-2-carboxamide]
chromatographic logP [1]: 3.35 | Eff. % (Plasmopara viticola): 96% | Eff. % (Phytophthora infestans [2]): 100%

Cn1oc(=O)nc1/C(=N\OCc1csc(NC(=O)C2COc3ccccc3O2)n1)c1ccccc1 (stereo not shown) [Example 9, N-{4-[({[(Z)-(2-methyl-5-oxo-2,5-dihydro-1,2,4-oxadiazol-3-yl)(phenyl)methylene]amino}oxy)methyl]-1,3-thiazol-2-yl}-2,3-dihydro-1,4-benzodioxine-2-carboxamide]
chromatographic logP [1]: 3.11 | Eff. % (Plasmopara viticola): 97% | Eff. % (Phytophthora infestans [2]): 98%

Cn1oc(=O)nc1/C(=N/OCc1csc(NC(=S)Cc2ccc(Cl)cc2)n1)c1ccccc1 [Example 101, 2-(4-chlorophenyl)-N-{4-[({[(E)-(2-methyl-5-oxo-2,5-dihydro-1,2,4-oxadiazol-3-yl)(phenyl)methylene]amino}oxy)methyl]-1,3-thiazol-2-yl}ethanethioamide]
chromatographic logP [1]: 3.85

Cn1oc(=O)nc1C(=NOCc1csc(NC(=O)COC2CCCCC2)n1)c1ccccc1 [Example 23]
LogP [1]: 3.42 | Eff. % (Phytophthora infestans [2]): 100% | % efficacy (Phytophthora infestans [3]): 100%

C#CCCCCOC(=O)Nc1nc(CON=C(c2ccccc2)c2nc(=O)on2C)cs1 [Example 30]
LogP [4]: 3.02 | % efficacy (Sphaerotheca fuliginea): 78% | Eff. % (Plasmopara viticola): 90% | % efficacy (Phytophthora infestans [3]): 100% | % efficacy (Puccinia recondita): 98%

CCCCCC(=O)Nc1nc(CON=C(c2ccccc2)c2nc(=O)on2C)cs1 [Example 12]
LogP [4]: 3.19 | Eff. % (Plasmopara viticola): 94% | Eff. % (Phytophthora infestans [2]): 92%

CCC(C)SC(=O)Nc1nc(CON=C(c2ccccc2)c2nc(=O)on2C)cs1 (stereo not shown) [Example 31]
LogP [4]: 3.46 | % efficacy (Botrytis cinerea): 82% | % efficacy (Phytophthora infestans [3]): 100%

C#CCCCOC(=O)Nc1nc(CON=C(c2ccccc2)c2nc(=O)on2C)cs1 [Example 29]
LogP [4]: 2.77 | % efficacy (Phytophthora infestans [3]): 95% | % efficacy (Puccinia recondita): 94%

Cn1oc(=O)nc1C(=NOCc1csc(NC(=O)C2Cc3ccccc3O2)n1)c1ccccc1 (stereo not shown) [Example 24]
LogP [4]: 3.06 | Eff. % (Plasmopara viticola): 93% | Eff. % (Phytophthora infestans [2]): 84% | % efficacy (Phytophthora infestans [3]): 100%

[H]/N=C(/C(=N\OCc1csc(NC(=O)OCCc2ccccc2)n1)c1ccccc1)N(O)CC [Example V-4, 2-phenylethyl (4-{[({(1Z,2Z)-2-[ethyl(hydroxy)amino]-2-imino-1-phenylethylidene}amino)oxy]methyl}-1,3-thiazol-2-yl)carbamate]
chromatographic logP [1]: 2.07

Cn1oc(=O)nc1/C(=N\OCc1csc(NC(=S)Cc2ccc(Cl)cc2)n1)c1ccccc1 [Example 100, 2-(4-chlorophenyl)-N-{4-[({[(Z)-(2-methyl-5-oxo-2,5-dihydro-1,2,4-oxadiazol-3-yl)(phenyl)methylene]amino}oxy)methyl]-1,3-thiazol-2-yl}ethanethioamide]
chromatographic logP [1]: 4.04

C#CCCC(C)OC(=O)Nc1nc(CO/N=C(/c2ccccc2)c2nc(=O)on2C)cs1 (racemic) [Example 32]
LogP [4]: 3.00 | % efficacy (Botrytis cinerea): 79% | % efficacy (Phytophthora infestans [3]): 99%

C#CCCOC(=O)Nc1nc(CON=C(c2ccccc2)c2nc(=O)on2C)cs1 [Example 11]
LogP [4]: 2.56 | Eff. % (Plasmopara viticola): 78% | Eff. % (Phytophthora infestans [2]): 70%

Cn1oc(=O)nc1C(=NOCc1csc(NC(=O)C2(C)CC2)n1)c1ccccc1 [Example 16]
LogP [4]: 2.66 | Eff. % (Plasmopara viticola): 91% | Eff. % (Phytophthora infestans [2]): 97%

CC(OCc1ccccc1)C(=O)Nc1nc(CON=C(c2ccccc2)c2nc(=O)on2C)cs1 (stereo not shown) [Example 19]
LogP [1]: 3.29 | Eff. % (Plasmopara viticola): 91% | % efficacy (Phytophthora infestans [3]): 100%

CC(Oc1ccccc1)C(=O)Nc1nc(CON=C(c2ccccc2)c2nc(=O)on2C)cs1 (stereo not shown) [Example 2]
LogP [4]: 3.15 | Eff. % (Plasmopara viticola): 97% | Eff. % (Phytophthora infestans [2]): 97%

Cn1oc(=O)nc1/C(=N\OCc1csc(N)n1)c1ccccc1 [Example 4, 3-[(Z)-{[(2-amino-1,3-thiazol-4-yl)methoxy]imino}(phenyl)methyl]-2-methyl-1,2,4-oxadiazol-5(2H)-one]
chromatographic logP [1]: 1.07

Cn1oc(=O)nc1C(=NOCc1csc(NC(=O)C2CCc3ccccc3C2)n1)c1ccccc1 (stereo not shown) [Example 26]
LogP [4]: 3.55 | Eff. % (Plasmopara viticola): 94% | Eff. % (Phytophthora infestans [2]): 92%

C#CCC(C)OC(=O)Nc1nc(CON=C(c2ccccc2)c2nc(=O)on2C)cs1 (stereo not shown) [Example 10]
LogP [4]: 2.80 | Eff. % (Plasmopara viticola): 88% | Eff. % (Phytophthora infestans [2]): 93%

Cc1ccc(OC(C)C(=O)Nc2nc(CON=C(c3ccccc3)c3nc(=O)on3C)cs2)cc1 (stereo not shown) [Example 27]
LogP [4]: 3.46 | Eff. % (Plasmopara viticola): 96% | Eff. % (Phytophthora infestans [2]): 95%

Cn1oc(=O)nc1C(=NOCc1csc(NC(=O)SC(C)(C)C)n1)c1ccccc1 [Example 18]
LogP [4]: 3.44 | Eff. % (Plasmopara viticola): 93% | Eff. % (Phytophthora infestans [2]): 97%

CN(O)C(=N)/C(=N\OCc1csc(Br)n1)c1ccccc1 [Example V-3, (2Z)-2-{[(2-bromo-1,3-thiazol-4-yl)methoxy]imino}-N-hydroxy-N-methyl-2-phenylethanimidamide]
chromatographic logP [1]: 1.34

Cn1oc(=O)nc1C(=NOCc1csc(NC(=O)COCc2ccccc2)n1)c1ccccc1 [Example 17]
LogP [4]: 3.06 | Eff. % (Plasmopara viticola): 94% | Eff. % (Phytophthora infestans [2]): 100%

COc1cccc(/C(=N/OCc2csc(NC(=O)OC3CCCCC3)n2)c2nc(=O)on2C)c1 [Example 33, Cyclohexyl {4-[({[(Z)-(3-methoxyphenyl)(2-methyl-5-oxo-2,5-dihydro-1,2,4-oxadiazol-3-yl)methylene]amino}oxy)methyl]-1,3-thiazol-2-yl}carbamate]
chromatographic logP [1]: 3.57 | % efficacy (Phytophthora infestans [3]): 88%

Cc1cccc2c1OC(C(=O)Nc1nc(CON=C(c3ccccc3)c3nc(=O)on3C)cs1)CO2 (stereo not shown) [Example 25]
LogP [4]: 3.42 | Eff. % (Plasmopara viticola): 96% | Eff. % (Phytophthora infestans [2]): 92%

Cn1oc(=O)nc1/C(=N\OCc1csc(NC(=O)Cc2ccc(Cl)cc2)n1)c1ccccc1 [Example 98, 2-(4-chlorophenyl)-N-{4-[({[(Z)-(2-methyl-5-oxo-2,5-dihydro-1,2,4-oxadiazol-3-yl)(phenyl)methylene]amino}oxy)methyl]-1,3-thiazol-2-yl}acetamide]
chromatographic logP [1]: 3.23

COc1cccc(/C(=N/OCc2csc(NC(=O)OC(C)(C)C)n2)c2nc(=O)on2C)c1 [Example 34]
LogP [4]: 3.13 | Eff. % (Plasmopara viticola): 95% | % efficacy (Phytophthora infestans [3]): 100%

CCCCCCC(=O)Nc1nc(CON=C(c2ccccc2)c2nc(=O)on2C)cs1 [Example 1]
LogP [4]: 3.55 | Eff. % (Plasmopara viticola): 90% | Eff. % (Phytophthora infestans [2]): 87%

Cn1oc(=O)nc1/C(=N\OCc1csc(Br)n1)c1ccccc1 [Example 99, 3-[(Z)-{[(2-bromo-1,3-thiazol-4-yl)methoxy]imino}(phenyl)methyl]-2-methyl-1,2,4-oxadiazol-5(2H)-one]
chromatographic logP [1]: 2.68
